# Assay results from patent US11986532B2 (Arvinas Operations, Inc., priority 2021, dated 2024).
# Where two headings read alike, the source gives them in different places.
# Biological target: T1, BCL6 (Homo sapiens, UniProt P41182)
# T1 construct: endogenous in cells; host or cells: T47D breast cancer epithelial cells
# Experiment: Immunofluorescence protocol for high content imaging of BCL6 (degradation) in T47D cells, 3 days compound treatment
# Format: cell-based
# Settings: for DC50: read-out: Mean DC50 (nM)* category; for Dmax: read-out: Mean Dmax (%)** category
# How it was run: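 Read-out: high-content imaging of anti-BCL6 immunofluorescence (Alexa-488 secondary) with CellMask and Hoechst counterstains, 10×, 4 fields/well. Cells had 3 days of compound exposure at 37° C, 5% CO2, 11-point 3-fold series from a final top of 0.1 or 1 μM.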
# [1] = T47D cells, 3 days compound treatment
DC50 [1],Dmax [1],Dmax (T47D),DC50,SMILES
10 to 50 nM,50 to 70%,,,"CNC(=O)COc1cc2cc(Nc3nc(N4CCN(CC5CCC6(CC5)CN(c5cc(OC)cc7c5C(=O)N(C5CCC(=O)NC5=O)C7=O)C6)CC4)ncc3Cl)ccc2n(C(C)C)c1=O (centres unmarked) [Compound 10, 2-{[6-({5-chloro-2-[4-({2-[2-(2,6-dioxopiperidin-3-yl)-6-methoxy-1,3-dioxo-2,3-dihydro-1H-isoindol-4-yl]-2-azaspiro[3.5]nonan-7-yl}methyl)piperazin-1-yl]pyrimidin-4-yl}amino)-2-oxo-1-(propan-2-yl)-1,2-dihydroquinolin-3-yl]oxy}-N-methylacetamide]"
,,50 to 70%,< 10 nM,"CNC(=O)COc1cc2cc(Nc3cc(N4CCC(CN5CCC6(CN(c7ccc8c(c7)CN(C7CCC(=O)NC7=O)C8=O)C6)C(F)(F)C5)CC4)ncc3Cl)ccc2n(C(C)C)c1=O (centres unmarked) [Compound 231, 2-{[6-({5-chloro-2-[4-({2-[2-(2,6-dioxopiperidin-3-yl)-1-oxo-2,3-dihydro-1H-isoindol-5-yl]-5,5-difluoro-2,7-diazaspiro[3.5]nonan-7-yl}methyl)piperidin-1-yl]pyridin-4-yl}amino)-2-oxo-1-(propan-2-yl)-1,2-dihydroquinolin-3-yl]oxy}-N-methylacetamide]"
10 to 50 nM,50 to 70%,,,"CNC(=O)COc1cc2cc(Nc3nc(N4CCC(CN5CCC6(CC5)CN(c5ccc7c(c5)C(=O)N(C5CCC(=O)NC5=O)C7=O)C6)CC4)ncc3F)ccc2n(C(C)C)c1=O (centres unmarked) [Compound 57, 2-{[6-({2-[4-({2-[2-(2,6-dioxopiperidin-3-yl)-1,3-dioxo-2,3-dihydro-1H-isoindol-5-yl]-2,7-diazaspiro[3.5]nonan-7-yl}methyl)piperidin-1-yl]-5-fluoropyrimidin-4-yl}amino)-2-oxo-1-(propan-2-yl)-1,2-dihydroquinolin-3-yl]oxy}-N-methylacetamide]"
≥ 100 nM,≥ 70%,,,"CNC(=O)COc1cc2cc(Nc3nc(N4CCC(F)(CN5CCC6(CC5)CCN(c5c(F)ccc7c5C(=O)N(C5CCC(=O)NC5=O)C7)CC6)CC4)ncc3Cl)ccc2n(C(C)C)c1=O (centres unmarked) [Compound 93, 2-{[6-({5-chloro-2-[4-({9-[2-(2,6-dioxopiperidin-3-yl)-5-fluoro-3-oxo-2,3-dihydro-1H-isoindol-4-yl]-3,9-diazaspiro [5.5]undecan-3-yl}methyl)-4-fluoropiperidin-1-yl]pyrimidin-4-yl}amino)-2-oxo-1-(propan-2-yl)-1,2-dihydroquinolin-3-yl]oxy}-N-methylacetamide]"

# Further lines, the compound ahead of its results:
SMILES,DC50 [1],Dmax [1],Dmax (T47D),DC50
"CNC(=O)COc1cc2cc(Nc3nc(N4CCC(O[C@H]5C[C@H](N6C[C@@H](C)N(c7ccc8c(c7)CN(C7CCC(=O)NC7=O)C8=O)[C@@H](C)C6)C5)CC4)ncc3Cl)ccc2n(C(C)C)c1=O (stereo partly drawn) [Compound 174, 2-({6-[(5-chloro-2-{4-[(1r,3r)-3-[(3R,5S)-4-[2-(2,6-dioxopiperidin-3-yl)-1-oxo-2,3-dihydro-1H-isoindol-5-yl]-3,5-dimethylpiperazin-1-yl]cyclobutoxy]piperidin-1-yl}pyrimidin-4-yl)amino]-2-oxo-1-(propan-2-yl)-1,2-dihydroquinolin-3-yl}oxy)-N-methylacetamide]",< 10 nM,≥ 70%,,
CNC(=O)COc1cc2cc(Nc3nc(N4CCC(O[C@H]5C[C@H](N6CCN(c7ccc8c(n7)CN(C7CCC(=O)NC7=O)C8=O)[C@@H](C)C6)C5)CC4)ncc3Cl)ccc2n(C(C)C)c1=O (some centres unmarked) [Compound 192],< 10 nM,≥ 70%,,
"CNC(=O)COc1cc2cc(Nc3nc(N4CCC(O[C@H]5C[C@H](N6CCC(c7ccc8c(c7F)CN(C7CCC(=O)NC7=O)C8=O)CC6)C5)CC4)ncc3Cl)ccc2n(C2CCCC2)c1=O (some centres unmarked) [Compound 191, 2-({6-[(5-chloro-2-{4-[(1r,3r)-3-{4-[2-(2,6-dioxopiperidin-3-yl)-4-fluoro-1-oxo-2,3-dihydro-1H-isoindol-5-yl]piperidin-1-yl}cyclobutoxy]piperidin-1-yl}pyrimidin-4-yl)amino]-1-cyclopentyl-2-oxo-1,2-dihydroquinolin-3-yl}oxy)-N-methylacetamide]",< 10 nM,≥ 70%,,
